In patent US12422427B2, “Compounds for treatment of diseases and methods of screening therefor” (Max-Planck-Gesellschaft zur Förderung der Wissenschaften …, priority 2018, dated 2025):

Assays:
[1] = biological target: T1, FUS low complexity domain (residues 1 to 163) (Homo sapiens, UniProt P35637); assay: 1H-15N HSQC NMR of FUS low complexity domain with compound; type: binding; settings: 500 μM compound
T1 construct: untagged FUS low complexity domain (residues 1 to 163) expressed, purified and analysed; made in house
T1 sequence (P35637 1-163): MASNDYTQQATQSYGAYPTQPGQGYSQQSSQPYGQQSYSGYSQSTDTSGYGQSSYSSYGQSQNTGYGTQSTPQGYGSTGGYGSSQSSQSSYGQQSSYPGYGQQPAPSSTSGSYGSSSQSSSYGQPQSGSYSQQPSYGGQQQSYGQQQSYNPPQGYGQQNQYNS
Procedure: Finally, mechanistic detail was analyzed at the sub-molecular level by using NMR of the FUS prion-like N-terminal LCD to determine putative sites of lipoamide interaction. The LCD is able to phase separate to form condensates in vitro and the individual residues can be resolved and assigned in a ^1H-^15N heteronuclear single quantum coherence spectrum. ^1H-^15N analyses reveal a change in environment of individual residues as indicated by their corresponding chemical shifts. The magnitude of chemical shift changes were compared with and without both lipoamide or mitoxantrone. […] This leaves several possibilities: Perhaps lipoamide interacts with the FUS LCD only when phase separated, potentially reducing viscosity, or interacts with the condensate phase boundary, perhaps increasing surface tension. Such interactions may reduce formation or expansion of aggregated forms of FUS involved in condensate hardening and reduced liquidity.
For analysis of compound interaction with FUS untagged FUS low complexity domain (residues 1 to 163) expressed, purified and analysed using ^1H-^15N heteronuclear single quantum coherence NMR and sample conditions previously described^14 in the presence of 500 μM compound or equivalent DMSO solvent control (1%).

[2] = system: HeLa cells expressing FUS GFP; assay: HeLa cell compound dose responses (FUS GFP, arsenate stress); type: cell-based; settings: 1 h pre-treatment, 1 h arsenate stress
Procedure: Small dilution steps rather than concentration replicates were selected as it provides greater statistical power from a set number of samples. Final DMSO concentration was 0.08% in all samples, and each plate included at least 12 control wells with 0.08% DMSO. Cytoplasmic FUS droplet number and nuclear/cytoplasm partition of FUS were analysed using custom macros in ImageJ. Nuclei were identified by intensity thresholding of the blue fluorescence image following a 5 px Gaussian blur. Cytoplasmic FUS droplets by intensity thresholding of the green image following a 10 px weight 0.9 unsharp filter masked by the thresholded nuclei, and nuclear FUS droplets by intensity thresholding of the green image following a 5 px weight 0.9 unsharp filter and 10 px rolling ball background subtraction masked to only include thresholded nuclei. The ratio of cytoplasmic FUS drops to nuclei was taken as cytoplasmic FUS droplets per cell per field of view, and p, the ratio of partition of FUS to the nucleus and the cytoplasm, was derived from a=Vn/vt, the ratio of nuclear to total green signal per field of view, where p=a/(1−a). […] Six fields of view were captured and analysed per condition.

[3] = system: P bodies, Cajal bodies, PML bodies, DNA damage foci, nucleolus; assay: Effect on other non-membrane bound compartments in HeLa GFP marker lines; type: cell-based
Procedure: FIG. 4A) Images of HeLa cells expressing Protein GFP markers of other non-membrane bound compartments subject to 1 h treatment with 10 μM compound (or DMSO control). Where unclear, the position of nuclei is indicated with a dotted outline. […] FIG. 4B) Recruitment of FUS GFP to sites of UV laser-induced DNA damage in iPS cells after 1 h treatment with compound followed by 1 h arsenate stress.
Stress granules are one of several, similar, cytoplasmic RNA-containing liquid-like compartments. […] Several stress granule proteins also form nuclear bodies: nuclear paraspeckles, and foci at the sites of DNA damage. There are also many other nuclear liquid-like compartments. It was then asked whether lipoamide also affected these other bodies, using a panel of cell lines expressing GFP fusions. For this analysis, mitoxantrone was included as a representative of the heterotri-/tetracyclic compound class of hits (FIG. 1F). An overly-broad effect on liquid-like compartments would likely cause side-effects for a therapeutic.
The action of lipoamide is therefore specific to the signaling and/or physical chemistry driving stress granule formation, stress granule phase separation, and/or a specific signaling route. Stress granules normally form and dissolve rapidly in comparison to many other compartments.

FUS GFP [4] = assay: Ex vivo DNA cut assay: FUS GFP recruitment to UV laser-induced DNA damage; type: cell-based, human
Source text: FUS is recruited to sites of DNA damage, and a potential mechanism contributing to ALS pathogenesis is reduced DNA damage response due to sequestration of FUS in the cytoplasm in stress granules. Strong association of FUS nuclear localization (NLS) mutations (e.g., P525L) with familial ALS mutations supports this hypothesis. The inventors therefore tested whether lipoamide affect FUS recruitment to sites of DNA damage induced by focused UV laser irradiation site, using arsenate-stressed iPSCs expressing FUS GFP (FIG. 4B). […] The action of lipoamide is therefore specific to cytoplasmic FUS liquid-like compartments, a therapeutically useful feature.
UV micro-irradiation of live cells was performed to induce DNA damage. KOLF iPS MNs expressing […] were […]. A single point in the nucleus was subject to 3 UV pulses as described for FRAP, but at 10% laser power. GFP fluorescence was imaged at 1 Hz, and intensity of response was analysed in ImageJ.

FUS GFP [5] = biological target: T2, FUS GFP (Homo sapiens, UniProt P35637); assay: In vitro purified FUS GFP droplet screen; type: biochemical; settings: low salt conditions, 1 mM DTT, up to 100 μM compound
T2 construct: His MBP (N, cleaved yes); made in house; host or cells: baculovirus/insect cell expression system
T2 sequence (P35637 1-526): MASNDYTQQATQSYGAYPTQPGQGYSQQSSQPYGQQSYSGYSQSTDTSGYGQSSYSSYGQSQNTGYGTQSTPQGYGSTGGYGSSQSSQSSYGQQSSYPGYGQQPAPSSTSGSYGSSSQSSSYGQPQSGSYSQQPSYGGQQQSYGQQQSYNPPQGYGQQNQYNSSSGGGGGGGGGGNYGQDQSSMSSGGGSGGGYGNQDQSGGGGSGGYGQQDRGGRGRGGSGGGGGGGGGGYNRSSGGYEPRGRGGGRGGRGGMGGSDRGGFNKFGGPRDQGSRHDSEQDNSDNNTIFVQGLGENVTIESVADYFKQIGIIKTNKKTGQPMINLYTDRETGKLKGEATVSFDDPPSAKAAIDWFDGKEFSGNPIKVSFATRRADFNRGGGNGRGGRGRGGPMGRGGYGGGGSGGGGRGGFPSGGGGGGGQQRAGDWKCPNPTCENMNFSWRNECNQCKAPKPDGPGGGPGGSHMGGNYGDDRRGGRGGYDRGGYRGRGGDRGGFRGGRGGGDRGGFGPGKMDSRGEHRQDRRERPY
Procedure: Compounds that can directly interact with FUS were of primary interest, therefore the inventors performed a follow up screen for action of compounds on FUS droplet formation in vitro (FIG. 1D). […] Hits were identified by the effect on number of FUS droplets formed and the partition of FUS into the droplets formed under low salt conditions in vitro in the presence of 1 mM DTT to mimic the reducing intracellular environment (FIG. 1E).
The effect of compounds on FUS GFP droplets in vitro was assessed in 384 well plate format. The compound volume (in DMSO) necessary for 1, 3, 10, 30 or 100 μM final concentration were added by acoustic dispensing (Labcyte Echo 550) to 96 well plate wells containing 3 μl FUS GFP diluted in 50 mM Tris. HCl pH 7.4, 1 mM DTT (for low salt assays). Final DMSO concentration was 0.01 to 1%. Using a Freedom Evo 200 liquid handling workstation (TECAN) the FUS GFP/compound mixture was diluted in 7 μl assay buffer containing 50 mM Tris. HCl pH 7.4, 1 mM DTT, 50 mM KCl and 0.7 μM FUS GFP. Compound/FUS GFP and assay buffer were mixed by a standardised pipetting procedure then split to four wells in clear bottom 384 well plates then immediately imaged using a CellVoyager CV7000 automated spinning disc confocal microscope (as above). […] Droplet number and FUS GFP partition into droplets were analysed with a fixed intensity threshold using ImageJ.

O=C1c2c(O)ccc(O)c2C(=O)c2c(NCCNCCO)ccc(NCCNCCO)c21 [mitoxantrone, reference compound]
chemical shift changes of FUS LCD residues [1]: weak shifts across the LCD | nuclear/cytoplasm FUS partition, dose response [2]: decreased nuclear/cytoplasm FUS partition | stress granule number, dose response [2]: reducing stress granule number | disruption of P bodies (DCP1A), Cajal bodies (COIL), DNA damage foci (TRP53BP1), nucleolus (NCB1) ([3]; 1 h treatment with 10 μM compound): non-stress granule specific effects | localization of P-body, PML body and DNA damage focus proteins ([3]; conditions that would dissolve stress granules): affected all of these compartments to some extent | FUS GFP recruitment to sites of DNA damage (FUS GFP [4]; concentrations not sufficient to dissolve cytoplasmic FUS droplets): blocked recruitment of FUS GFP to sites of DNA damage | formation of nuclear FUS droplets at the sites of DNA damage (FIG. 4B legend) (FUS GFP [4]; iPS cells, arsenate stress): prevents formation of nuclear FUS droplets | FUS GFP droplet number, partition into droplets and droplet size (FUS GFP [5]): fewer smaller drops
